The source of these data is paper PMC11083148, “Structure–Activity Relationship Studies on Highly Functionalized Pyrazole Hydrazones and Amides as Antiproliferative and Antioxidant Agents” (International Journal of Molecular Sciences, 2024).

One series concerns A549. The experiment in a line: MTT assay, antiproliferative activity. The format is cell-based. The settings on record: Homo sapiens, 48h, read-out: Mean Growth Percentage. In outline: (§1)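 Cells plated 16 h, then exposed to compounds at 10 μM final for 48 h at 37 °C, 5% CO2. MTT added for 4 h, formazan dissolved in DMSO, absorbance read at 570 nm; values as percent of DMSO-only control, mean of three experiments in six replicates.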

The test system of the next series is Hep-G2. The experiment in a line: MTT assay, antiproliferative activity. It is filed as cell-based. The settings on record: Homo sapiens, HepG2, 48h. In outline:
as §1

The next series deals with MDA-MB231. In words: MTT assay, antiproliferative activity. The format is cell-based. The settings on record: Homo sapiens, MDA-MB-231, 48h. Summed up:
as §1

Another series deals with SK-BR3. In words: MTT assay, antiproliferative activity. It is filed as cell-based. Particulars: Homo sapiens, SK-BR-3, 48h. In outline:
as §1

Another series relates to HeLa. The experiment in a line: MTT assay, antiproliferative activity. The format is cell-based. The settings on record: Homo sapiens, 10 µM, 48h, read-out: Mean Growth Percentage.
For another series, the system named is MCF7. In words: MTT assay, antiproliferative activity. It is filed as cell-based. Particulars: Homo sapiens, 10 µM, 48h.
Another series deals with SKMEL28. The experiment in a line: MTT assay, antiproliferative activity. The format is cell-based. Particulars: Homo sapiens, SK-MEL-28, 10 µM, 48h.
The test system of another series is SKOV3. In words: MTT assay, antiproliferative activity. The format is cell-based. The settings on record: Homo sapiens, SK-OV-3, 10 µM, 48h.
A further series concerns GM-6114. The experiment in a line: MTT assay, cytotoxicity on normal fibroblasts. It is filed as cell-based. The settings on record: human, 48 h, 10 µM.
The test system of series [1] is washed platelets. In words: Platelet aggregation (thrombin-induced, Born's method). The settings on record: Homo sapiens, 0.1 U/mL thrombin, mean ± SD, read-out: IC50 Aggregation inhibition. The format is cell-based. In outline: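 Washed human platelets (3.0 × 10^8/mL) were preincubated with compound at 37 °C for 3 min. Aggregation was then triggered with 0.1 U/mL thrombin and measured by Born's turbidimetric method, with IC50 values calculated from the response.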

Series [2] deals with washed platelets. In words: ROS assay in platelets (DCFH-DA, thrombin-stimulated). It is filed as cell-based, human. Particulars: Homo sapiens, Platelet, 0.1 U/mL thrombin, mean ± SD, read-out: IC50 ROS production inhibition. In outline:
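Washed human platelets (1.0 × 10^8/mL) in pH 7.4 HEPES buffer were pre-incubated 15 min at 37 °C with compound, then stimulated with 0.1 U/mL thrombin. ROS was read as DCF fluorescence from DCFH-DA by flow cytometry. IC50 comes from three-point concentration-response nonlinear regression versus saline control, mean of six experiments.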

Series [3] is described as follows: DPPH radical-scavenging activity. The format is physicochemical. On the set-up: AA (%), percentage of antioxidant activity: concentration or dose not given beside the values. The settings on record: mean ± SD, n = 2. How it is done:
The antioxidant activity of the representative compounds of the two series (namely, acylhydrazones 10b, 11a, 11d, 12d, 13d, and amides 14, 22) was measured in vitro using the 2,2-diphenyl-1-picrylhydrazyl (DPPH) assay. The results were calculated as Trolox equivalent and expressed as a percentage of antioxidant activity (AA) (Table 3). […] Derivatives 10b and 12d were endowed with the highest antioxidant activity, thus highlighting the relevance of both pyrazole N1 and acylhydrazone substituents on compounds’ radical scavenging properties.
Compounds 10b, 11a, 11d, 12d, 13d, 14, and 22 (ca. 3 mg) were dissolved in DMSO (1 mL), and then 100 µL of this solution was mixed with 3.9 mL of DPPH methanol solution (65 µM). Absorbance was measured at 517 nm after reacting for 30 min in the dark. The linear calibration curve was obtained using Trolox standards (ranging between 20 and 200 mg/L, R^2 = 0.9955). The result was calculated as Trolox equivalent in mg/L, and the percentage of antioxidant activity (AA%) was calculated from the ratio of decreasing absorbance of sample solution (A0 − As) to absorbance of blank DPPH solution (A0), as expressed in Equation (1). (1) AA%=A0−As/A0×100
All analyses were carried out in duplicate (n = 2), and values are given as means ± standard deviation (SD).

On the set-up of series [4]: method as in PMID 32932211. The settings on record: ABTS scavenging assay; cited from earlier work.

Experimental for GM-6114: Pyrazole acylhydrazones 10–13 and amides 14–22 were tested by MTT assay to evaluate their antiproliferative and cytotoxicity properties against a panel of eight tumor cell lines and normal fibroblasts.
The following cell lines were used for MTT assays: SKOV-3 (ovarian adenocarcinoma, ATCC, Manassas, VA, USA); MCF-7 (breast adenocarcinoma, Biologic Bank and Cell Factory, IRCCS Policlinico San Martino, Genoa, Italy); Hep-G2 (hepatocellular carcinoma, ATCC, Manassas, VA, USA); SK-MEL28 (skin melanoma, Biologic Bank and Cell Factory, IRCCS Policlinico San Martino, Genoa, Italy), GM-6114 (embryonic human fibroblast, ATCC, Manassas, VA, USA); MDA-MB231 (breast adenocarcinoma, Biologic Bank and Cell Factory, IRCCS Policlinico San Martino, Genoa, Italy); HeLa (cervical adenocarcinoma, Biologic Bank and Cell Factory, IRCCS Policlinico San Martino, Genoa, Italy); SK-BR3 (breast andenocarcinoma, Biologic Bank and Cell Factory, IRCCS Policlinico San Martino, Genoa, Italy); A549 (lung carcinoma, Biologic Bank and Cell Factory, IRCCS Policlinico San Martino, Genoa, Italy); HUVEC (Human Umbilical Vein Endothelial Cells, ATCC, Manassas, VA, USA). All cell lines were grown in their medium with 10% FBS, 2 mM Glutamine, and 1% penstrep and incubated at 37 °C in 5% CO2 in a humidified environment. The cell lines were plated in 96-well plates at an adequate number to reach 80–90% confluence at the end of the assay. 16 h after cell plating, a 10 mM DMSO stock solution of the compounds was diluted in growth medium and added at a final working concentration of 10 μM. After 48h of incubation, a 2 mg/mL PBS solution of MTT (3-(4,5-dimethyl-2-thiazolyl)-2,5-diphenyl-2H-tetrazolium bromide) was added (30 μL/well). After 4h, the supernatant was removed, and the Formazan precipitates were dissolved in DMSO (100 μL/well). The 96-well plates were incubated for 20 min, and absorbance was measured at 570 nm using a plate reader. The results are expressed as a percentage ratio over control samples (100%) in which the cells were incubated with the same amount of DMSO but without compounds. Each value is the mean of three independent experiments run in six replicates.

Regarding `COc1ccc(/C=N/NC(=O)c2c(N)nn(C)c2Nc2ccccc2)cc1OCc1ccccc1` [11d, (E)-3-amino-N′-(3-(benzyloxy)-4-methoxybenzylidene)-1-methyl-5-(phenylamino)-1H-pyrazole-4-carbohydrazide], the melting point lay within 183 to 186 °C. Moreover, the activity at 10 µM in the series on A549 stood at 101%. The compound also gave a Mean growth percentage at 10 µM in the series on Hep-G2 of 111%. Further, the Mean growth percentage at 10 µM in the series on MDA-MB231 came out at 98.6%. Besides, the Mean growth percentage at 10 µM in the series with SK-BR3 was determined as 90.2%. Further, the activity at 10 µM with HeLa came out at 95.2%. The mean growth percentage (cell growth remaining vs control) at 10 µM in the series on MCF7 was found to be 82.9%. For the same compound, in the series with SKMEL28, the Mean growth percentage at 10 µM was 89%. In the series on SKOV3, this compound yielded a Mean growth percentage at 10 µM of 103%. The “Mean Growth Percentage” value in the series with GM-6114 turned out to be 99.22%. The IC50 in the series on washed platelets [1] came out at 890 ± 19 µM. Further, the IC50 in the series with washed platelets [2] amounted to 182 ± 11 µM. In [3], the “AA (%), percentage of antioxidant activity” value (“AA (%), percentage” for short) was determined as 15.53 ± 0.24% and the “DPPH (%)” value is listed as 84.47 ± 0.24%.
Take `COc1ccc(/C=N/NC(=O)c2c(Nc3ccccc3)nn(CC(O)c3ccccc3)c2N)cc1OCc1ccccc1` (stereo not drawn) [13d, (E)-5-amino-N′-(3-(benzyloxy)-4-methoxybenzylidene)-1-(2-hydroxy-2-phenylethyl)-3-(phenylamino)-1H-pyrazole-4-carbohydrazide]: the melting point lay in the range of 170 to 173 °C. For the same compound, in the series with A549, the activity at 10 µM amounted to 90.4%. In the series with Hep-G2, the Mean growth percentage at 10 µM came to 120%. The compound further displayed a Mean growth percentage at 10 µM in the series on MDA-MB231 of 93.8%. In the series on SK-BR3, this compound registered a Mean growth percentage at 10 µM of 97.9%. Also, the activity at 10 µM in the series with HeLa was found to be 96.7%. For the same compound, the mean growth percentage (cell growth remaining vs control) at 10 µM in the series with MCF7 was 108%. Further, the Mean growth percentage at 10 µM with SKMEL28 turned out to be 93.9%. In the series with SKOV3, the Mean growth percentage at 10 µM was determined as 112%. In addition, in the series with GM-6114, the “Mean Growth Percentage” value is recorded as 95.39%. Moreover, the IC50 with washed platelets [1] is 437 ± 25 µM. Further, in the series with washed platelets [2], the IC50 stood at 405 ± 29 µM. Besides, in series [3], the “AA (%), percentage” value is recorded as 56.29 ± 1.18% and the “DPPH (%)” value was 43.71 ± 1.18%.
Turning to `Nc1c(C(F)(F)F)n[nH]c1-c1ccccc1` [IIa], in series [4], the IC50 is 14.1 µM and the “Trolox equivalent antioxidant capacity (TEAC)” value was 1.35.
Take `Nc1c(C(F)(F)F)n[nH]c1-c1cccs1` [IIb]: in [4], the IC50 is 17.6 µM and the “Trolox equivalent antioxidant capacity (TEAC)” value is given as 1.10.
As for `COC(=O)c1c(NC(=O)c2cc(OC)c(OC)c(OC)c2)n[nH]c1Nc1ccccc1` [compound 14, Methyl 5-(phenylamino)-3-(3,4,5-trimethoxybenzamido)-1H-pyrazole-4-carboxylate], the melting point lay within 164 to 166 °C. Also, the activity at 10 µM in the series on A549 was found to be 35.1%. Moreover, the Mean growth percentage at 10 µM in the series with Hep-G2 was determined as 67.2%. The same compound yielded a Mean growth percentage at 10 µM in the series on MDA-MB231 of 57%. This compound also had a Mean growth percentage at 10 µM with SK-BR3 of 53.8%. In the series on HeLa, the activity at 10 µM worked out at 9.45%. For the same compound, the mean growth percentage (cell growth remaining vs control) at 10 µM with MCF7 was 66.1%. In the series with SKMEL28, this compound showed a Mean growth percentage at 10 µM of 41.5%. Also, in the series with SKOV3, the Mean growth percentage at 10 µM turned out to be 38.5%. Besides, the “Mean Growth Percentage” value in the series on GM-6114 stood at 39.31%. Also, the IC50 in the series with washed platelets [1] amounted to 365 ± 28 µM. The IC50 in the series on washed platelets [2] is 387 ± 35 µM. In series [3], the “AA (%), percentage” value is recorded as 3.62 ± 0.08% and the “DPPH (%)” value was 96.38 ± 0.08%.
`CCOC(=O)c1c(NC(=O)c2cc(OC)c(OC)c(OC)c2)nn(C)c1Nc1ccccc1` [compound 22, Ethyl 1-methyl-5-(phenylamino)-3-(3,4,5-trimethoxybenzamido)-1H-pyrazole-4-carboxylate] had a melting point of 135 to 138 °C. In the series on A549, the activity at 10 µM amounted to 106%. The compound also registered a Mean growth percentage at 10 µM in the series on Hep-G2 of 102%. For the same compound, in the series on MDA-MB231, the Mean growth percentage at 10 µM stood at 140%. In the series with SK-BR3, the Mean growth percentage at 10 µM is 103%. Also, in the series on HeLa, the activity at 10 µM is 109%. The mean growth percentage (cell growth remaining vs control) at 10 µM in the series with MCF7 was 115%. The Mean growth percentage at 10 µM with SKMEL28 was found to be 84.1%. Besides, the Mean growth percentage at 10 µM in the series with SKOV3 was found to be 94.2%. Besides, the “Mean Growth Percentage” value in the series with GM-6114 turned out to be 57.94%. Besides, the IC50 in the series with washed platelets [1] was 249 ± 22 µM. In addition, the IC50 with washed platelets [2] is 313 ± 25 µM. In [3], the “AA (%), percentage” value was 2.39 ± 0.24% and the “DPPH (%)” value was 97.61 ± 0.24%.
